Consider two molecules from US12281123B2, “Benzoxazinone compounds as KLK5/7 dual inhibitors” (MOLECULAR SKIN THERAPEUTICS, INC., priority 2019, dated 2025).

Marks after values point to notes of the source that are not given here.

Type in all cases: biochemical
One experiment concerns the target T1, KLK7 (Homo sapiens, UniProt P49862).
T1 construct: purchased R&D Biosystems (Minneapolis, MN) / R&Dsystems; host or cells: mouse myeloma cells
The experiment can be described thus: Recombinant KLK7 chromogenic IC50 assay. The conditions noted are these: Table 2; assay protocol of Example 3; read-out: Recombinant KLK7 enzyme (IC50). From the text: (§1) Human Kallikrein Proteins: Recombinant human KLK5 expressed in HEK293 was obtained from SpeedBio (Gaithersburg, MD). Recombinant proenzyme KLK-7 and recombinant proenzyme KLK-14 both expressed in mouse myeloma cells were from R&D Biosystems (Minneapolis, MN). Plasmin and thrombin were from Haematologic Technologies (Essex Junction, VT). Trypsin and Chymotrypsin were bought from Worthington Biochemical Corporation (Lakewood, NJ) and plasma kallikrein was from Prospec (East Brunswick, NJ). Neutrophil Elastase was obtained from Innovative Research (Peary Court, MI). Bovine recombinant enterokinase expressed in E. coli was bought from Sigma (St. Louis, MI). Matriptase expressed in E. coli was obtained from Enzo Life Sciences (Farmingdale, NY). The control inhibitors Nafamostat mesylate was from Sigma (St. Louis, MI) and (2-(2-fluorophenyl)-5,6,7,8-tetrahydro-4H-benzo[4,5]thieno[2,3-d][1,3]oxazin-4-one was from Interbioscreen (Moskow, Russia).
(§2) Substrates: S-2288 (D-Ile-Pro-Arg-pNA), CS-PSA (MeO-Suc-Arg-Pro-Tyr-pNA), S-2266 (H-D-Val-Leu-Arg-pNA) and S-2288 (H-D-Ile-Pro-Arg-pNA) were bought from Diapharma (West Chester, OH). MeOSuccAla-Ala-Pro-Val-pNA was purchased from Sigma (St Louis, MI). The substrates were dissolved in water at 10 mM and were frozen in aliquots at −20° C.
Activation of KLK-7 and KLK-14: 150 μL 8 μM solution of the proenzymes of KLK-7 or KLK-14 in 50 mM Tris, 10 mM CaCl2, 150 mM NaCl, 0.05% (w/v) Brij-35, pH 7.5 were mixed with 150 μL 10 μg/mL bovine enterokinase in the same buffer and incubated for 2 h for KLK-7 and 1 h for KLK-14 at 37° C. After the incubation period, activation was stopped by addition of 6 μL 0.5 M EDTA pH 8.0.
(§3) Assays: All assays were performed in 384 well polystyrene plates coated overnight with 0.1% Tween 20 at 4° C. The plates were then washed twice with 100 μL water and dried. For the determination of IC50 values, the inhibitors were diluted in serial dilutions of 1:3 intervals into pure DMSO at 50 fold of the intended final concentrations in the assays. Usually eight inhibitor dilutions and one DMSO control were prepared. The substrates were diluted into water at 2.2-fold the final concentration in the assay mixture. The wells of the plate were filled with 50 μL of the enzyme diluted in 2× assay buffer (100 mM Tris, 200 mM NaCl, 0.2% PEG, 0.01% Tween, 2 mM EDTA, pH 8.0) at twofold the intended concentration. Then 5 μL DMSO, 2.2 μL inhibitor and 45 μL substrate were added to start the reaction. The assays were monitored at 37° C. in a multi well plate reader at a wavelength of 405 nm (Molecular Devices, San Jose, CA) for 1 h. The tool inhibitor, nafamostat, was used as a control for trypsin, thrombin, KLK-5 and KLK-14 at 10 μM maximal concentration and (2-(2-fluorophenyl)-5,6,7,8-tetrahydro-4H-benzo[4,5]thieno[2,3-d][1,3]oxazin-4-one for KLK-7 at 5 μM.
(§4) The table summarizes assay conditions for the individual enzymes:
(§5) Data analysis: The progress curves of substrate hydrolysis were analyzed by linear regression of the final 20 min of the reaction. Fit of the dose response of the resulting rates to the following equation yielded the IC50:
(§6) [formula] with 1) c: the background rate at the highest inhibitor concentration; 2) d: the rate of the control reaction; 3) IC50: the IC50 of the inhibitor; 4) x: the inhibitor concentration; and 5) b: the slope.
(§7) Proteases: KLK5 (SpeedBioSystems); KLK7 (R&Dsystems) was activated with enterokinase (2 hours, 37° C.) prior to assay; Trypsin (Sigma Aldrich); Chymotrypsin (Sigma Aldrich); Factor Xa (Haematologic Technologies); Plasmin (Haematologic Technologies); KLK14 (R&Dsystems) was activated with enterokinase (1 hour, 37° C.) prior to assay; Thrombin (Haematologic Technologies); Neutrophil Elastase (Athens Research&Technology); and KLK1 (Prospec).

In the next experiment the target is T2, Recombinant human KLK5 (Homo sapiens, UniProt Q9Y337).
T2 construct: purchased SpeedBio (Gaithersburg, MD) / SpeedBioSystems; host or cells: HEK293
T2 sequence (Q9Y337 23-293): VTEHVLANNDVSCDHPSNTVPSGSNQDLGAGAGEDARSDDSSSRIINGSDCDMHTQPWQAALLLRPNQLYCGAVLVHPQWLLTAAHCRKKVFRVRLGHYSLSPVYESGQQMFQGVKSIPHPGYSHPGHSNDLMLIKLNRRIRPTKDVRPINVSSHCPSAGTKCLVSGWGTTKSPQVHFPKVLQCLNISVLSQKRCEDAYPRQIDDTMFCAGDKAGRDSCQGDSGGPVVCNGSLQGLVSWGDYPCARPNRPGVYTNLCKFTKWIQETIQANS
The experiment can be described thus: Recombinant KLK5 chromogenic IC50 assay. Particulars: Table 2; assay protocol of Example 3; read-out: Recombinant KLK5 enzyme (IC50).
Description: as §1, §2, §3, §4, §5, §6, §7

Experiment [1] concerns KLK proteases in human skin extract. The experiment can be described thus: Inhibition of protease activity in human skin extract. Particulars: human skin extract; for Rate in Skin Assay: compound concentration not given. As to the method:
Materials: The peptide substrates PS-01 (YRSR-pNA Tyr-Arg-Ser-Arg-pNA) (SEQ ID NO. 1) and PS-02 (Lys-His-Leu-Tyr-pNA) (SEQ ID NO. 2) were synthesized by Zamboni Chemical Solutions (Montreal, Canada). Human epidermis samples were obtained from Biopredic (Saint-Grégoire, France). The BCA protein assay kit was bought from VWR.
Preparation of skin extract: The epidermis was frozen and lyophilized. A sample of 15 mg lyophilized epidermis was immersed in 1 mL high salt buffer (100 mM Tris, 5 mM EDTA, 2M KCl, pH 8), frozen twice in dry ice and thawed. After incubation overnight at 4° C. and addition of six 2.4 mm metal beads, the sample was homogenized in a Bertin Precellys Homogenizer (Atkinson, NH) three times at […] for 20 seconds each and cooled in between for 30 seconds. After centrifugation at maximal speed in a desktop minifuge, the protein concentration of the supernatant was determined by BCA assay (˜0.5 mg/mL).
Inhibition of protease activity in skin extract: Stock solutions of 200, 66, 22 and 0 μM of the tested compound in DMSO were prepared. Substrate stocks of 1100 μM PS-01 and PS-02 were prepared by dissolving in water. The wells of a 384 well plate was filled with 50 μL 2× assay buffer (see above) and then 45 μL substrate stock and 5 μL of the test compound were added. The reaction was started by addition of 10 μL skin extract for the substrate PS-02 and 5 μL for the substrate PS-01. The substrate hydrolysis was monitored in multi-well plate reader at 405 nm.
Chromogenic substrate cleavage progressions of Compounds 1.001, 1.002, and 14 were tested according to human stratum corneum extract assay of Example 4 using KLK5 and KLK7 preferred chromogenic peptide substrates (PS-01 and PS-02). The proteolytic cleavage of KLK5 selective substrate in skin extract by Compounds 1.001, 1.002, and 14 are compared and shown in FIGS. 4A-4D. NSK refers to extract from skin freshly prepared; and OSK refers to extract from skin post freeze thaw.

T1 sequence (P49862 30-253): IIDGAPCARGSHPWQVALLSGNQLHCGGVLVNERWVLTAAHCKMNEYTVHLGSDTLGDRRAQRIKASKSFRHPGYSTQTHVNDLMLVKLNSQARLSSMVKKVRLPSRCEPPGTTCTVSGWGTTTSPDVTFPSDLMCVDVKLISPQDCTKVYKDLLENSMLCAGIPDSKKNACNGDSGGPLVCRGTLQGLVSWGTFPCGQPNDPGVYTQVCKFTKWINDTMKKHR

Usually IC50 stands for the concentration that gives 50% inhibition. On to `CS(=O)(=O)c1ccc(CO)cc1-c1nc2cc3c(cc2c(=O)o1)OCCO3` [Compound 1.002, 2-(5-(Hydroxymethyl)-2-(methylsulfonyl)phenyl)-7,8-dihydro-4H-[1,4]dioxino[2′,3′:4,5]benzo[1,2-d][1,3]oxazin-4-one], for which the IC50 at KLK7 is 220 nM; at Recombinant human KLK5 it was 1570 nM. The “Initial rate of proteolytic activity” value in experiment [1] (Conc 1 μM) is 0.1* Absorbance405/min; in experiment [1] (Conc 3.3 μM), 0.09* Absorbance405/min. Besides, the results for the “Initial rate of substrate hydrolysis” value in experiment [1] (Conc 1 μM) and in experiment [1] (Conc 3.3 μM) were 0.06* Absorbance405/min and 0.05* Absorbance405/min, respectively. For the same molecule, the “Rate in Skin Assay” value in experiment [1] was 0.009* Absorbance405/min.
On to `CS(=O)(=O)c1ccccc1-c1nc2cc3c(cc2c(=O)o1)OCCO3` [Compound 14, reference compound], for which the half-inhibitory concentration (IC50) is 130 nM on KLK7 and 240 nM on Recombinant human KLK5. Besides, the “Initial rate of proteolytic activity” value in experiment [1] (Conc 1 μM) was 0.13* Absorbance405/min; in experiment [1] (Conc 3.3 μM) it was 0.11* Absorbance405/min. Moreover, the “Initial rate of substrate hydrolysis” value in experiment [1] (Conc 1 μM) was 0.1* Absorbance405/min; in experiment [1] (Conc 3.3 μM) it was 0.08* Absorbance405/min. Besides, in experiment [1], the “Rate in Skin Assay” value was 0.14* Absorbance405/min.
